Measured values: US8158021B2, “Polymerizable liquid crystal compound, polymerizable liquid crystal composition, liquid crystalline polymer, and optical anisotropic article” (Zeon Corporation, priority 2007, dated 2012)

What was measured:
[1] = Formation of cholesteric phase in cured liquid crystalline polymer film; assay type: physicochemical; design: key: A case where a cholesteric phase was formed is indicated by “Formed”; a case where a cholesteric phase was not formed is indicated by “Not formed”; conditions: composition with polymerizable chiral compound; cured film 4 μm; transmission spectrum
Description: The polymerizable liquid crystal composition solution was applied to a glass substrate provided with a rubbed polyimide alignment film using a bar coater (“SA-203” manufactured by Tester Sangyo Co., Ltd., Rod No. 8, shaft diameter: 12.7 mm). After drying the resulting film on a hot plate at 100° C. for three minutes, ultraviolet rays (1000 mJ/cm^2) were applied to the film from a mercury lamp to obtain a cured liquid crystalline polymer film having a thickness of 4 μm.
The transmission spectrum of the cured film was measured using a spectrophotometer (“MCPD-3000” manufactured by Otsuka Electronics Co., Ltd.). A selective reflection region (i.e., a region in which the transmittance was about 50%) was observed when a cholesteric phase was formed. The bandwidth was about 50 to 100 nm. A case where a cholesteric phase was formed is indicated by “Formed”, and a case where a cholesteric phase was not formed is indicated by “Not formed”.

[2] = Measurement of phase transition temperature (liquid crystallinity temperature range); assay type: physicochemical
Description: The substrates were heated from 30° C. to 250° C. on a hot plate, and then cooled to 30° C. A change in structure during a change in temperature was observed using a polarization optical microscope (“ECLIPSE LV100POL” manufactured by Nikon Corporation) to measure the phase transition temperature.
In Table 1, “C” indicates “Crystal”, “N” indicates “Nematic”, and “I” indicates “Isotropic”.

[3] = Measurement of optical anisotropy (value Δn) of cured polymer film; assay type: physicochemical; conditions: cured polymer film 1.5 μm; retardation at 545.3 nm; Δn=Re/d
Description: 2.7 parts of a photoinitiator (“Irgacure 907” manufactured by Ciba Specialty Chemicals Co., Ltd.) was then homogenously dissolved in the solution. The resulting solution was applied to a glass substrate provided with a rubbed polyimide alignment film using a bar coater (“SA-203” manufactured by Tester Sangyo Co., Ltd., Rod No. 4, shaft diameter: 12.7 mm). After drying the resulting film on a hot plate at 100° C. for two minutes, ultraviolet rays (700 mJ/cm^2) were applied to the film from a mercury lamp to obtain a cured polymer film having a thickness of 1.5 μm.
The retardation (Re) of the cured film at a wavelength of 545.3 nm was measured using an ellipsometer (“XLS-100” manufactured by J. A. Woollam). The thickness (d) of the liquid crystal layer was also measured, and the value Δn was calculated by “Δn=Re/d”.

[4] = Mutual solubility when forming the cured film; conditions: at 23° C., naked eye observation of turbidity
Description: When forming the cured film of the compound, the mutual solubility of the compound at 23° C. was evaluated by naked eye observation. A case where turbidity was not observed is indicated by “Good”, and a case where turbidity was observed is indicated by “Bad”.

[5] = Solubility in cyclopentanone; conditions: in cyclopentanone at 60° C., compound concentration 40 wt %
Description: The solubility of the compound at 60° C. was evaluated when preparing the solution having a compound concentration of 40 wt %.

[6] = heated from 30° C. to 250° C., then cooled to 30° C., polarization optical microscope

| Compound | Cholesteric phase [1] | Liquid crystallinity temperature range [2, 6] | Δn [3] | Liquid crystallinity temperature range ([2]; summary of Table 1) | Mutual solubility [4] | Solubility [5] |
| --- | --- | --- | --- | --- | --- | --- |
| C=CC(=O)OCCCCCCOc1ccc(C(=O)Oc2ccc(C=NN=Cc3ccc(OC(=O)c4ccc(OCCCCCCOC(=O)C=C)cc4)c(C(=O)OCCOCCC)c3)cc2)cc1 [Polymerizable liquid crystal compound 3] | Formed | 190 °C or more | 0.176 | – | – | – |
| C=CC(=O)OCCCCCCOc1ccc(C(=O)Oc2ccc(C=NN=Cc3ccc(OC(=O)c4ccc(OCCCCCCOC(=O)C=C)cc4)c(OCC)c3)cc2)cc1 [Polymerizable liquid crystal compound 4] | Formed | 175 °C or more | 0.199 | – | – | – |
| C=CC(=O)OCCCCCCOc1ccc(C(=O)Oc2ccc(C=NN=Cc3cc(OC)c(OC(=O)c4ccc(OCCCCCCOC(=O)C=C)cc4)c(OC)c3)cc2)cc1 [Polymerizable liquid crystal compound 5] | Formed | 155 °C or more | 0.116 | – | – | – |
| C=CC(=O)OCCCCOc1ccc(C(=O)Oc2ccc(C=NN=Cc3ccc(OC(=O)c4ccc(OCCCCOC(=O)C=C)cc4)c(OCC)c3)cc2)cc1 [Polymerizable liquid crystal compound 6] | Formed | 170 °C or more | 0.202 | – | – | – |
| C=CC(=O)OCCCCCCOc1ccc(C(=O)Oc2ccc(C=NN=Cc3ccc(OC(=O)c4ccc(OCCCCCCOC(=O)C=C)cc4)c(C(=O)OCCOC(=O)C=C)c3)cc2)cc1 [Polymerizable liquid crystal compound 7] | Formed | 125 °C or more | 0.187 | – | – | – |
| C=CC(=O)OCCCCCCOc1ccc(C(=O)Oc2ccc(C=NN=Cc3ccc(OC(=O)c4ccc(OCCCCCCOC(=O)C=C)cc4)c(OCC)c3)cc2OCC)cc1 [Polymerizable liquid crystal compound 8] | Formed | 150 °C or more | 0.200 | – | – | – |
| C=CC(=O)OCCCCCCOc1ccc(C(=O)Oc2ccc(C=NN=Cc3ccc(OC(=O)c4ccc(OCCCCCCOC(=O)C=C)cc4)c(C(=O)OC)c3)cc2C(=O)OC)cc1 [Polymerizable liquid crystal compound 10] | Formed | 130 °C or more | 0.191 | – | – | – |
| C=CC(=O)OCCCCOC(=O)Oc1ccc(C(=O)Oc2ccc(OC(=O)c3ccc(OC(=O)OCCCCOC(=O)C=C)cc3)c(C)c2)cc1 [Polymerizable liquid crystal compound 12, reference compound] | – | – | – | narrow temperature range | – | – |
| C=CC(=O)OCCCCOC(=O)Oc1ccc(C(=O)Oc2ccc(OC(=O)c3ccc(OC(=O)OCCCCOC(=O)C=C)cc3)c(C)c2)cc1 [compound 12] | Formed | 63 °C | 0.100 | – | Good | Good |
